Laboratory results taken from PubChem BioAssay (NCI).
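Grown in 96-well plates, cells were treated for 48 hours with each compound at five concentrations. Insufficient inhibition: endpoint recorded as highest concentration tested. Definition used: TGI = concentration required for complete inhibition of growth.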

Legend:
Assay in all cases: growth of human tumour cells (NCI), 48 h
786-0 renal = test system: 786-0 renal
A498 renal = test system: A498 renal
A549 NSCLC = test system: A549 NSCLC
ACHN renal = test system: ACHN renal
CAKI-1 renal = test system: CAKI-1 renal
CCRF-CEM leukemia = test system: CCRF-CEM leukemia
COLO 205 colon = test system: COLO 205 colon
DLD-1 colon = test system: DLD-1 colon
DMS 114 small cell lung = test system: DMS 114 small cell lung
DMS 273 small cell lung = test system: DMS 273 small cell lung
EKVX NSCLC = test system: EKVX NSCLC
HCC-2998 colon = test system: HCC-2998 colon
HCT-116 colon = test system: HCT-116 colon
HCT-15 colon = test system: HCT-15 colon
HL-60(TB) leukemia = test system: HL-60(TB) leukemia
HOP-18 NSCLC = test system: HOP-18 NSCLC
HOP-62 NSCLC = test system: HOP-62 NSCLC
HOP-92 NSCLC = test system: HOP-92 NSCLC
HT29 colon = test system: HT29 colon
IGROV1 ovarian = test system: IGROV1 ovarian
K-562 leukemia = test system: K-562 leukemia
KM12 colon = test system: KM12 colon
KM20L2 colon = test system: KM20L2 colon
LOX IMVI melanoma = test system: LOX IMVI melanoma
LXFL 529 NSCLC = test system: LXFL 529 NSCLC
M14 melanoma = test system: M14 melanoma
M19-MEL melanoma = test system: M19-MEL melanoma
MALME-3M melanoma = test system: MALME-3M melanoma
MOLT-4 leukemia = test system: MOLT-4 leukemia
NCI-H226 lung = test system: NCI-H226 lung
NCI-H23 lung = test system: NCI-H23 lung
NCI-H460 lung = test system: NCI-H460 lung
NCI-H522 lung = test system: NCI-H522 lung
OVCAR-3 ovarian = test system: OVCAR-3 ovarian
OVCAR-4 ovarian = test system: OVCAR-4 ovarian
OVCAR-5 ovarian = test system: OVCAR-5 ovarian
OVCAR-8 ovarian = test system: OVCAR-8 ovarian
RPMI-8226 leukemia = test system: RPMI-8226 leukemia
RXF 393 renal = test system: RXF 393 renal
SF-268 CNS = test system: SF-268 CNS
SF-295 CNS = test system: SF-295 CNS
SF-539 CNS = test system: SF-539 CNS
SK-MEL-2 melanoma = test system: SK-MEL-2 melanoma
SK-MEL-28 melanoma = test system: SK-MEL-28 melanoma
SK-MEL-5 melanoma = test system: SK-MEL-5 melanoma
SK-OV-3 ovarian = test system: SK-OV-3 ovarian
SN12C renal = test system: SN12C renal
SNB-19 CNS = test system: SNB-19 CNS
SNB-75 CNS = test system: SNB-75 CNS
SNB-78 CNS = test system: SNB-78 CNS
SR leukemia = test system: SR leukemia
SW-620 colon = test system: SW-620 colon
TK-10 renal = test system: TK-10 renal
U251 CNS = test system: U251 CNS
UACC-257 melanoma = test system: UACC-257 melanoma
UACC-62 melanoma = test system: UACC-62 melanoma
UO-31 renal = test system: UO-31 renal
XF 498 CNS = test system: XF 498 CNS

Measured: TGI

COC(=N)/C(=C1\OC(N)=C(c2ccc(Cl)cc2)C1=O)c1ccc(Cl)cc1
> 100 µM: all assays above

C=C1C(=O)C23C(CC(OC(C)=O)C1[C@@H]2OC(C)=O)C1(C)C(OC(C)=O)CCC(C)(C)C1C[C@@H]3OC(C)=O (stereo partly drawn)
2.87 µM: IGROV1 ovarian
0.831 µM: RXF 393 renal
3.01 µM: MALME-3M melanoma
3.49 µM: KM12 colon
3.19 µM: UO-31 renal
7.98 µM: HOP-62 NSCLC
2.52 µM: HCT-15 colon
2.75 µM: SW-620 colon
3.27 µM: OVCAR-5 ovarian
3.3 µM: SK-MEL-28 melanoma
3.14 µM: SNB-78 CNS | UACC-257 melanoma
4.68 µM: RPMI-8226 leukemia
2.97 µM: HCT-116 colon
2.92 µM: ACHN renal | M14 melanoma
3.33 µM: SK-MEL-5 melanoma
5.38 µM: EKVX NSCLC
3.05 µM: A549 NSCLC
3.31 µM: SNB-19 CNS
2.22 µM: HT29 colon
3.59 µM: SK-OV-3 ovarian
3.4 µM: A498 renal
2.8 µM: SN12C renal
2.98 µM: SF-268 CNS
3.72 µM: UACC-62 melanoma
3.37 µM: NCI-H460 lung | SK-MEL-2 melanoma
3.13 µM: NCI-H226 lung
2.86 µM: SF-295 CNS
1.59 µM: OVCAR-8 ovarian
3.16 µM: M19-MEL melanoma | SF-539 CNS
1.35 µM: HOP-92 NSCLC
2.51 µM: HL-60(TB) leukemia
2.95 µM: U251 CNS
1.66 µM: NCI-H522 lung
3.41 µM: OVCAR-4 ovarian
2.63 µM: LOX IMVI melanoma | LXFL 529 NSCLC
3.24 µM: HCC-2998 colon
1.94 µM: CAKI-1 renal
3.6 µM: K-562 leukemia
3.03 µM: OVCAR-3 ovarian
2.89 µM: SNB-75 CNS
2.73 µM: 786-0 renal
3.07 µM: DMS 273 small cell lung
2.4 µM: DMS 114 small cell lung

C/C(=N\N=C(N)N)c1sc(-c2nc(C)c(/C(C)=N/N=C(N)N)s2)nc1C
> 66.4 µM: SR leukemia
> 95.3 µM: RXF 393 renal
> 58.3 µM: LOX IMVI melanoma
> 90.6 µM: COLO 205 colon
> 68.5 µM: 786-0 renal
88.2 µM: HL-60(TB) leukemia
> 77 µM: NCI-H522 lung
> 66.9 µM: HCT-15 colon
not listed: DMS 114 small cell lung
> 100 µM: all other assays above
